For orientation: logP means the decadic logarithm of the partition coefficient of the neutral form, usually between octanol and water. Low readings indicate a more hydrophilic compound, high ones a more lipophilic compound.

The source of these data is the OPERA property sets (Mansouri et al. 2018).

Where a SMILES comes first, the peptide text is derived from it.

On to `FC(F)(F)c1ccccc1C1OCC2ON=C(c3ccccc3)C2CO1` (stereo unspecified), for which the logP stood at 4.31.
In turn, `CSCCC(NC(C)=O)C(=O)NC(C(N)=O)C(C)C` (stereo unspecified) displayed a logP of -0.28.
In the case of `CCCCCCC(=O)N1CCCC1=O` it was 3.04.
Next, `Cc1cc(NC(=O)C2=C(O)c3ccccc3S(=O)(=O)N2C)no1`: 2.83.
In the case of `Clc1cccc(-c2c(Cl)c(Cl)cc(Cl)c2Cl)c1Cl` it was 7.25; in that of `COC1CC(OC2CCC3(C)C(CCC4C3CCC3(C)C(C5=CC(=O)OC5)C(OC(C)=O)CC43OC(C)=O)C2)OC(C)C1O` (stereo unspecified), 2.95; in that of `O=c1[nH]c2ccccc2n1C1CCN(CC(O)C2COc3ccccc3O2)CC1` (stereo unspecified), 3.43.
Compound `COc1cccc(N2CCN(CCN(C)C)C2=O)c1` registered a logP of 1.76.
Next, `Fc1ccc(SCc2ccccc2CCCN2CCOCC2)cc1`: 3.69; `CNC(=O)C(Cc1ccc(O)cc1)NC(C)=O` (stereo unspecified): -0.32.
Next, `NC(=Nc1ccccc1)NN=Cc1ccc2ccccc2n1`: 0.99; `CCN1CCN(C(=O)N[C@@H](C(=O)N[C@@H]2C(=O)N3[C@@H]2SC(C)(C)[C@@H]3C(=O)O)c2ccccc2)C(=O)C1=O`: 0.5.
In the case of `O=c1cc[nH]cc1` it was -1.3; in that of `CCOC(=O)c1ccc(N=NN(C)C)cc1`, 3.66.
Turning to `CCN(CC)C(=O)N(C)SN(C)C(=O)ON=C(C)SC`, the log partition coefficient (logP) is 3.2.
In the case of `CCc1nc(C)c([N+](=O)[O-])[nH]1` it was 0.76; in that of `O=C(NCCCOc1cccc(CN2CCCCC2)c1)c1ccccc1`, 3.97; in that of `O=C(O)C[N+]1([O-])CCN(C(=O)Cn2c(=O)sc3ccc(Cl)cc32)CC1`, 0.21.
In the case of `COc1cc2c(c(OC)c1OC)-c1ccc(OC)c(=O)cc1C(NC(=O)C(F)(F)F)CC2` (stereo unspecified) it was 1.72; in that of `S=C=NCCCCCc1ccccc1`, 4.4.
Next, `CCCCCOc1ccc2ccc(=O)oc2c1`: 3.92.
With `CC1(C)CCC(C)(C)N1[O]`, the logP amounted to 1.
Turning to `CCC(C)C(NC(C)=O)C(=O)NC(CC(C)C)C(=O)NC(CC(=O)O)C(N)=O` (stereo not drawn) (Ac-Ile-Leu-Asp-NH2; configuration not given here), the logP was -0.04.
For `CCCNC(=O)C1(O)C(C)CC2C3CCC4=CC(=O)C=CC4(C)C3(F)C(O)CC21C` (stereo unspecified), the logP came to 2.59.
On to `Cc1ccccc1C(=O)OCC1CCC(n2cnc3c(=O)[nH]cnc32)O1` (stereo unspecified), for which the lipophilicity (logP) amounted to 1.02.
Next, `Clc1cc(Cl)c(-c2cc(Cl)c(Cl)c(Cl)c2)cc1Cl`: 7.5; `C[C@H]1OC(O[C@H]2[C@@H](O)CC(O[C@H]3[C@@H](O)CC(O[C@H]4CC[C@@]5(C)[C@H](CC[C@@H]6[C@@H]5CC[C@]5(C)[C@@H](C7=CC(=O)OC7)[C@@H](OC=O)C[C@]65O)C4)O[C@@H]3C)O[C@@H]2C)C[C@H](O)[C@@H]1O` (stereo partly specified): 2.04; `OCC1CC(F)C(n2cnc3c(I)ncnc32)O1` (stereo unspecified): 0.63.
With `COC(=O)C1CC2C3CCC4=CC(=O)C=CC4(C)C3(F)C(O)CC2(C)C1C(=O)CO` (stereo unspecified), the logP was 1.78.
As for `CCOC(=O)CCC(C)n1nnc2ccccc21` (stereo unspecified), the lipophilicity (logP) was 2.64.
Next, `NC(=O)c1cc2ccccc2o1`: 1.54; `C#CC1(OC(=O)C2=CN(C)C=CC2)CCC2C3CCC4=CC(=O)CCC4(C)C3CCC21C` (stereo unspecified): 4.49.
Next, `O=[N+]([O-])c1nc(Br)[nH]c1Br`: 2.82; `Cn1c([N+](=O)[O-])cnc1Cc1ccc(C(N)=O)cc1`: 0.55; `O=C(CCn1cnc([N+](=O)[O-])n1)NCCO`: -1.32.
Compound `CCCCC(=O)OC(C(=O)NC1C(=O)N2C(C(=O)O)=C(C)CSC12)c1ccccc1` (stereo unspecified) came in with a logP of 2.23.
As to `CC(C)CN1C(=O)C(=O)c2ccccc2C1=O`, the lipophilicity (logP) came out at 2.08.
In the case of `COc1cc(S(C)=O)ccc1-c1nc2ccccc2[nH]1` (stereo unspecified), the logP amounted to 2.15.
In the case of `COc1ccccc1OCc1ccccc1CCCN1CCC(O)CC1` it was 2.82; in that of `c1ccc(SCc2ccc(CCCN3CCOCC3)cc2)cc1`, 3.62; in that of `CN1C(=O)C(=O)C(=O)N(C)C1=O`, -0.6.
Next, `CNC(=O)N(C)c1nnc(C(C)(C)C)s1`: 1.79.
`Clc1ccc(Cl)c(-c2c(Cl)ccc(Cl)c2Cl)c1Cl` showed a logP of 7.12.
Next, `CCCCOC(=O)C(C(=O)OCCCC)=C1SCCS1`: 4.6; `CC(=O)NC(CC(C)C)C(=O)NC(CCC(=O)O)C(=O)NC(Cc1ccccc1)C(N)=O` (stereo not drawn) (Ac-Leu-Glu-Phe-NH2; configuration not given here): 0.47; `CC1(c2ccc(F)cc2)OC2CC3C4CCC5=CC(=O)CCC5C4CCC3(C)C2(C(=O)CO)O1` (stereo unspecified): 4.92.
Next, `CC12CCC(=O)C=C1CCC1C2CCC2(C)C1CCC2(O)C(O)CO` (stereo unspecified): 2; `CCCCCCNC(=O)C1(O)C(C)CC2C3CCC4=CC(=O)C=CC4(C)C3(F)C(O)CC21C` (stereo unspecified): 4.54.
In the case of `Cc1cccc(OC(C)C(=O)NNC(C)C)c1` (stereo unspecified) it was 1.88; in that of `Cc1cc(O)cc(C)c1O`, 1; in that of `O=C1CC(Sc2nc3ccccc3s2)N1` (stereo unspecified), 2.3.
On to `O=C(O)CCc1cc(=O)c2cc3c(cc2o1)CCCC3`, for which the logP was determined as 2.85.
Next, `CSC(=O)c1c(C(F)F)nc(C(F)(F)F)c(C(=O)SC)c1CC(C)C`: 4.75.
In the case of `Nc1ncc(Cc2cccc(Cl)c2Cl)c(N)n1` it was 2.81.
Next, `CCN(CC)Cc1ccc(C(=O)Nc2ccccc2C)cc1`: 3.31; `Clc1ccc(-c2cc(Cl)c(Cl)c(Cl)c2Cl)cc1Cl`: 7.6; `CN(C)N=Nc1cccc(C(N)=O)c1`: 1.3.
Turning to `O=c1nc(N=CN2CCCC2)ccn1C1CC(O)C(CO)O1` (stereo unspecified), the logP was -1.02.
`Cc1cc(O)c(C)c(C)c1O` gave a log partition coefficient (logP) of 1.69.
Next, `CCCCC(NC(Cc1ccccc1)C(=O)N1CCC(OCOC)CC1)C(=O)NC(CC1CCCCC1)C(O)CC(C(=O)NCCC[N+]1([O-])CCOCC1)C(C)C` (stereo unspecified): 3.6; `O=[N+]([O-])c1ncn[nH]1`: -0.33; `CNN=Nc1ccc(C(N)=O)cc1`: 0.47.
Next, `[N-]=[N+]=CC(=O)NCC(=O)N1CCOCC1`: -0.47; `CCN1C(=O)C(=O)c2cccc(OC)c2C1=O`: 0.94.
Next, `CCCCOc1cccc(NC(=O)OCCN2CCOCC2)c1`: 3.62; `CCCCCCCOc1ccccc1NC(=O)OCCN1CCOCC1`: 4.51.
As to `CCC(C)C(=O)OC1CCC=C2C=CC(C)C(CCC(O)CC(O)CC(=O)O)C21` (stereo unspecified), the lipophilicity (logP) was 3.6.
As for `Cc1ccccc1CO[C@H]1C[C@]2(C(C)C)CC[C@@]1(C)O2` (single isomer, unassigned), the logP was 4.62.
In the case of `CC1CC2C3CCC4=CC(=O)C=CC4(C)C3(F)C(O)CC2(C)C1(O)C(=O)NCC#N` (stereo unspecified) it was 1.57; in that of `OCC1CC(F)C(n2cnc3c(F)ncnc32)O1` (stereo unspecified), 0.06.
In the case of `Cc1cc(C)cc(Cl)c1` it was 3.88; in that of `COCCCNC(=S)C(F)(F)Cn1cnc([N+](=O)[O-])n1`, 1.1.
Next, `N#CC(C#N)=NNc1ccccc1C(F)(F)F`: 4.2.
Compound `NC(CCc1ccccc1)C(=O)O` (stereo unspecified) gave a logP of -1.2.
In the case of `Cc1cccc(C)c1N` it was 1.84.
In the case of `CC(C)N1C(=O)C(=O)c2ccccc2C1=O` it was 1.6; in that of `CCNc1nc(NC)nc(SC(F)F)n1`, 2.68.
Next, `CCN1C(=O)C(=O)c2c(OC)cc(OC)cc2C1=O`: 1.23; `CC(C)NCC(COc1cccc2ccccc12)OS(=O)(=O)O` (stereo unspecified): 1.16; `Cc1nnc[nH]1`: -0.55.
Compound `Cc1[nH]c2cccc3c2c1CC1NCC(C(=O)NC2(C(C)C)OC4(O)C5CCCN5C(=O)C(C(C)C)N4C2=O)C=C31` (stereo unspecified) had a logP of 3.15.
Next, `Cc1ccc(Cl)cc1O`: 2.63; `N=c1ccn2c(n1)OC1C(O)C(CCl)OC12` (stereo unspecified): -3.1; `Clc1cc(Cl)c(Cl)c(-c2cc(Cl)c(Cl)cc2Cl)c1`: 7.12.
Next, `c1ccc2c3c([nH]c2c1)CN1CCNCC1C3` (stereo unspecified): 0.36; `CCOCCN(CCOCC)CC(O)c1cc(-c2ccc(Cl)c(Cl)c2)nc2ccccc12` (stereo unspecified): 5.76; `CN(C)N=Nc1ccc2oc3ccccc3c2c1`: 4.55.
Next, `CN1C(=O)C(=O)c2ccccc2C1=O`: 0.6.
`O=[N+]([O-])c1ccc2ccc3cccc4ccc1c2c34` came in with a lipophilicity (logP) of 5.06.
Next, `C(=C\c1ccccc1)/CN1CCN(C(c2ccccc2)c2ccccc2)CC1`: 5.77; `CC(C)CCNC(=O)C1(O)C(C)CC2C3CCC4=CC(=O)C=CC4(C)C3(F)C(O)CC21C` (stereo unspecified): 3.74; `CCN1C(=O)C(=O)c2c(cccc2[N+](=O)[O-])C1=O`: 0.82.
In the case of `CC(=O)OC1C(=O)C2(C)C(O)CC3OCC3(OC(C)=O)C2C(OC(=O)c2ccccc2)C2(O)CC(OC(=O)C(C)O)C(C)=C1C2(C)C` (stereo unspecified) it was 1.52; in that of `CC(=O)Nc1ccnnc1`, -0.41; in that of `FC(F)(F)C1(F)C(F)(F)C(F)(F)C(F)(N2C(F)(F)C(F)(F)C(F)(F)C(F)(F)C2(F)F)C(F)(F)C1(F)F` (stereo unspecified), 7.1.
In the case of `OC1CCN(CCCc2ccccc2CSc2ccccc2)CC1` it was 3.85; in that of `CON=C(C(=O)NC1C(=O)N2C(C(=O)OCOC(=O)C(C)(C)C)=CCSC12)c1csc(N)n1` (stereo unspecified), 1.76.
Turning to `C#CC1(OC(=O)C2=CN(C)C=CC2)CCC2C3CCC4=CC(=O)CCC4C3CCC21C` (stereo unspecified), the logP amounted to 4.44.
In the case of `c1ccc(Cn2cnnn2)cc1` it was 1.36; in that of `Cc1c(O)c(=O)ccn1-c1ccc([N+](=O)[O-])cc1`, 0.76.
Next, `CCCCNC(=O)CNC(=O)C=[N+]=[N-]`: 0.37; `CCN1C(=O)C(=O)c2c(C(N)=O)cccc2C1=O`: -0.5; `Clc1cc(Cl)cc(-c2cccc(Cl)c2Cl)c1`: 6.17.
In the case of `CCOC(=S)NCCn1c([N+](=O)[O-])cnc1C` it was 1.5.
Take `N#CCc1ccc(C(=O)O)cc1`: the logP is 1.18.
For the compound `CCN1C(=O)C(=O)c2c(C#N)cccc2C1=O`, the logP turned out to be 0.41.
